Peptide text beside a SMILES is read from it. * marks the point of attachment. Tyr(Nα,Nα-Bn2) = O=C([C@H](Cc1ccc(O)cc1)N(Cc1ccccc1)Cc1ccccc1)*; Tyr(Nα,Nα-allyl2) = C=CCN(CC=C)[C@@H](Cc1ccc(O)cc1)C(=O)*; X4 = O=C([C@H](Cc1ccc(O)cc1)N(CCc1ccccc1)CCc1ccccc1)*; X5 = CCCCCCCCN(CCCCCCCC)[C@@H](Cc1ccc(O)cc1)C(=O)*; X3 = O=C([C@H](Cc1ccc(O)cc1)N(CC1CC1)CC1CC1)*; X1 = CCCCCN(CCCCC)[C@@H](Cc1ccc(O)cc1)C(=O)*; X2 = CCCN(CCC)[C@@H](Cc1ccc(O)cc1)C(=O)*
How the values were obtained:
Mus musculus = organism: Mus musculus; assay: Agonistic activity was measured on the electrically stimulated longitudinal muscle of the mouse vas deferens (MVD) at 1 uM concentration; conditions: Muscle tissue
Cavia porcellus = organism: Cavia porcellus; assay: Agonistic activity was measured on the electrically stimulated longitudinal muscle of the guinea pig ileum (GPI) at 1 uM concentration; conditions: Muscle tissue

`CCCN(CCC)[C@@H](Cc1ccc(O)cc1)C(=O)NCC(=O)NCC(=O)N[C@@H](Cc1ccccc1)C(=O)N[C@@H](CC(C)C)C(=O)O` (X2-GGFL-OH) gave an inhibition at 1 µM (Mus musculus) of 11.9% and an inhibition at 1 µM (Cavia porcellus) of -2.6%.

`CC(C)C[C@H](NC(=O)[C@H](Cc1ccccc1)NC(=O)CNC(=O)CNC(=O)[C@H](Cc1ccc(O)cc1)N(CC1CC1)CC1CC1)C(=O)O` (X3-GGFL-OH) gave an inhibition at 1 µM (Mus musculus) of 27.3% and an inhibition at 1 µM (Cavia porcellus) of 2.2%.

In the case of `CC(C)C[C@H](NC(=O)[C@H](Cc1ccccc1)NC(=O)CNC(=O)CNC(=O)[C@H](Cc1ccc(O)cc1)N(CCc1ccccc1)CCc1ccccc1)C(=O)O` (X4-GGFL-OH), the inhibition at 1 µM (Mus musculus) is reported as 60.5% and the inhibition at 1 µM (Cavia porcellus) is reported as 14.7%.

`CC(C)C[C@H](NC(=O)[C@H](Cc1ccccc1)NC(=O)CNC(=O)CNC(=O)[C@H](Cc1ccc(O)cc1)N(Cc1ccccc1)Cc1ccccc1)C(=O)O` ({Tyr(Nα,Nα-Bn2)}-GGFL-OH) was tested, and the inhibition at 1 µM (Mus musculus) was 11.4% and the inhibition at 1 µM (Cavia porcellus) was 1.9%.

Work on `C=CCN(CC=C)[C@@H](Cc1ccc(O)cc1)C(=O)NCC(=O)NCC(=O)N[C@@H](Cc1ccccc1)C(=O)N[C@@H](CC(C)C)C(=O)O` ({Tyr(Nα,Nα-allyl2)}-GGFL-OH) yielded an inhibition at 1 µM (Mus musculus) of 10% and an inhibition at 1 µM (Cavia porcellus) of -6.7%.

Molecule `CCCCCCCCN(CCCCCCCC)[C@@H](Cc1ccc(O)cc1)C(=O)NCC(=O)NCC(=O)N[C@@H](Cc1ccccc1)C(=O)N[C@@H](CC(C)C)C(=O)O` (X5-GGFL-OH) has an inhibition at 1 µM (Mus musculus) of 39.2% and an inhibition at 1 µM (Cavia porcellus) of 8.1%.

`CCCCCN(CCCCC)[C@@H](Cc1ccc(O)cc1)C(=O)NCC(=O)NCC(=O)N[C@@H](Cc1ccccc1)C(=O)N[C@@H](CC(C)C)C(=O)O` (X1-GGFL-OH) was tested, and the inhibition at 1 µM (Mus musculus) was 20.4% and the inhibition at 1 µM (Cavia porcellus) was 15.9%.

— ChEMBL document CHEMBL1123869, “N,N-dialkylated leucine enkephalins as potential delta opioid receptor antagonists” (1987)
